Reference: US10883993B2, “P53 biomarkers” (MULTIVIR INC., priority 2008, dated 2021)

Experiments:
SCCHN = details: monotherapy studies in SCCHN, ITT population, standard of care drugs; cited from earlier work
recurrent SCCHN = test: Phase 3 pivotal trial T301 (ADVEXIN or methotrexate), tumor response and survival; format: in vivo, human
Description: Favorable response to the therapy may comprise reduction in tumor size or burden, blocking of tumor growth, reduction in tumor-associated pain, reduction in tumor-associated pathology, reduction in tumor-associated symptoms, tumor non-progression, increased disease free interval, increased time to progression, induction of remission, reduction of metastasis, or increased patient survival. Particularly, “tumor response” may refer to tumor growth control (tumor growth control (TGC) defined by complete (CR) and partial (PR) reductions in size of >50% or Stable Disease (SD); TGC=CR+PR+SD) or reductions in tumor size of >10%.
Table 2 summarizes the results of these analyses and provides the corresponding data for patients treated with methotrexate in the pivotal Phase 3 T301 study.

SCCHN patients = test: Safety data, Phase III SCCHN study (ADVEXIN vs methotrexate)
αv/β3 vascular integrin [1] = details: mice, without harming them; cited from earlier work
αv/β3 vascular integrin [2] = molecular target: T1, αv/β3 vascular integrin (Homo sapiens, UniProt P05106+P06756); details: Phase II clinical trials in humans, without harmful side effects; cited from earlier work
T1 construct: the new blood vessels in tumors express a vascular integrin, designated αv/β3; host or cells: tumour blood vessels of human patients

[3] = T301, p53 gene status wild type
[4] = T301 methotrexate ITT population

T1 sequence (P06756 31-889 limits assumed): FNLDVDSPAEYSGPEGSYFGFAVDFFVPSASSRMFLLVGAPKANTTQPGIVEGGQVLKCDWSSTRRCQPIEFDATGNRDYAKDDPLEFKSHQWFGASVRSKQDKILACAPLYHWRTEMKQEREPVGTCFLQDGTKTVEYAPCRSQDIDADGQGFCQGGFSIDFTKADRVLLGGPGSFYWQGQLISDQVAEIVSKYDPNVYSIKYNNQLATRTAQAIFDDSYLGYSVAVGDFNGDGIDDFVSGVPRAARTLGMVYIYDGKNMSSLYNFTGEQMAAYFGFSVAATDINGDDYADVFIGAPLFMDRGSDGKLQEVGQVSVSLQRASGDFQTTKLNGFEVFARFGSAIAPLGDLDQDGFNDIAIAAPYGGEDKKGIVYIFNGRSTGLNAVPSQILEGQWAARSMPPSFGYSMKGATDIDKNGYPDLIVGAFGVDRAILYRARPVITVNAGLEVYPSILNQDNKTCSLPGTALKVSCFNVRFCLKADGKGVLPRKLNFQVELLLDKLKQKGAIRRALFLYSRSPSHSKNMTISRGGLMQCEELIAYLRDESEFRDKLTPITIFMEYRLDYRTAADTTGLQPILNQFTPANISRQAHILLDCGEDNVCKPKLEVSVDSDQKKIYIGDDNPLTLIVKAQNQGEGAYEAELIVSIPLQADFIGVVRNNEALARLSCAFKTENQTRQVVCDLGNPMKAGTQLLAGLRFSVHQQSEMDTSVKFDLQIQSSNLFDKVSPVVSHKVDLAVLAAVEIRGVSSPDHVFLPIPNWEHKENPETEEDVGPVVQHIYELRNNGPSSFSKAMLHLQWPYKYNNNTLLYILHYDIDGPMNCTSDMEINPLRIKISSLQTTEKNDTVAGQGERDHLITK
T1 sequence (P06756 891-1048 limits assumed): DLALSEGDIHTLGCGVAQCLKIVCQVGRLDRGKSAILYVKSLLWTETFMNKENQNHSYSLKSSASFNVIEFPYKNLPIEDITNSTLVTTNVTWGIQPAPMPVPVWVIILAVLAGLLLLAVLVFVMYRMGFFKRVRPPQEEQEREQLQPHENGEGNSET
T1 sequence (P05106 27-788): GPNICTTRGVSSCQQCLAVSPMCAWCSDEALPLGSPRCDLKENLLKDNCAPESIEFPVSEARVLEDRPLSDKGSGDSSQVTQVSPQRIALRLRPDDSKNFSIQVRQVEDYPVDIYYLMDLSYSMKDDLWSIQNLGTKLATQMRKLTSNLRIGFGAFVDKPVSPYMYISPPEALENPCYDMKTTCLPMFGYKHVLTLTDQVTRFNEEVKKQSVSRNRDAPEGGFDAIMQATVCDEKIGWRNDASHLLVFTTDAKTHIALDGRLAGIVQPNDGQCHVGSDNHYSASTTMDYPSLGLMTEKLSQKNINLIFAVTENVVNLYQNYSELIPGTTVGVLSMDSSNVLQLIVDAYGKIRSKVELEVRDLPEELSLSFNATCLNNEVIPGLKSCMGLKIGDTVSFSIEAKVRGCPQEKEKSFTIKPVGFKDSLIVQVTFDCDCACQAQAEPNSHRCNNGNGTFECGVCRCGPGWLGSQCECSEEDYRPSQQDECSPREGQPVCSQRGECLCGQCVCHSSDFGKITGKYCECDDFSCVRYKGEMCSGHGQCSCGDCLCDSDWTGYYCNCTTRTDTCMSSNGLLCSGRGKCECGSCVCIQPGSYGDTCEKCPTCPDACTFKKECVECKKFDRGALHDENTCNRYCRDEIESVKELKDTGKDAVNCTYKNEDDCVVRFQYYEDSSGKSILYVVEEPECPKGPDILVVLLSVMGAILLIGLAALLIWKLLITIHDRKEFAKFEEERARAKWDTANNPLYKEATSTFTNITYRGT

CC(=O)O[C@@]12CO[C@@H]1C[C@H](O)[C@@]1(C)C(=O)[C@H](O)C3=C(C)[C@@H](OC(=O)[C@H](O)[C@@H](NC(=O)OC(C)(C)C)c4ccccc4)C[C@@](O)([C@@H](OC(=O)c4ccccc4)[C@H]21)C3(C)C [Docetaxel]
Median Overall Survival (SCCHN): 6.6 months

C#Cc1cccc(Nc2ncnc3cc(OCCOC)c(OCCOC)cc23)c1 [Erlotinib]
Median Overall Survival (SCCHN): 5.8 months

CN(Cc1cnc2nc(N)nc(N)c2n1)c1ccc(C(=O)N[C@@H](CCC(=O)O)C(=O)O)cc1 [Methotrexate]
Median Overall Survival (SCCHN): 4.2-5.6 months
Median survival, patients with p53 profiles favorable for ADVEXIN efficacy (recurrent SCCHN; T301): 4.3 months
Median survival, patients with p53 profiles unfavorable for ADVEXIN efficacy (recurrent SCCHN; T301): 6.0 months
Tumor Growth Control, patients with TGC / patients (recurrent SCCHN; T301, p53 gene status mutated): 13/15
Tumor Growth Control, percentage of patients (recurrent SCCHN; T301, p53 gene status mutated): 87%
Tumor Growth Control, patients with TGC / patients (recurrent SCCHN; [3]): 11/20
Tumor Growth Control, percentage of patients (recurrent SCCHN; [3]): 55%
Median Survival, TGC Non-Responders (recurrent SCCHN; T301 ITT population): 3.8 months
Median Survival, TGC Responders (recurrent SCCHN; T301 ITT population): 7.5 months
% Tumor Growth Control (recurrent SCCHN; T301 ITT population, TGC = CR+PR+SD): 53.3%
% Tumor Response (≥10% tumor reduction) (recurrent SCCHN; [4]): 18.3%
% Tumor Response (≥50% tumor reduction) (recurrent SCCHN; [4]): 11.7%
Median Survival, Non-Responders (≥10% tumor reduction criterion) (recurrent SCCHN; [4]): 4.3 months
Median Survival, Non-Responders (≥50% tumor reduction criterion) (recurrent SCCHN; [4]): 4.6 months
Median Survival, Responders (≥10% tumor reduction) (recurrent SCCHN; [4]): 11.9 months
Median Survival, Responders (≥50% tumor reduction) (recurrent SCCHN; [4]): 14.4 months
Grade 3 or 4 laboratory event: leukopenia (SCCHN patients; Phase III SCCHN study): 12.1%
Grade 3 or 4 laboratory event: lymphopenia (SCCHN patients; Phase III SCCHN study): 25.6%
Grade 3 or 4 laboratory event: neutropenia (SCCHN patients; Phase III SCCHN study): 12.1%
Incidence of Grade 3 or 4 laboratory events (SCCHN patients; Phase III SCCHN study): 39.5%
Body weight loss over time (SCCHN patients; Phase III SCCHN study, compared with ADVEXIN patients): more body weight loss
Deaths attributed to treatment (SCCHN patients; Phase III recurrent SCCHN study, due to leukopenia): one death
Incidences of stomatitis, nausea, pneumonia, paresthesia, leucopenia and neutropenia (SCCHN patients; Phase III study, relative to ADVEXIN): higher incidences

CC(=O)O[C@H]1C(=O)[C@@]2(C)[C@H]([C@H](OC(=O)c3ccccc3)[C@]3(O)C[C@H](OC(=O)[C@H](O)[C@@H](NC(=O)c4ccccc4)c4ccccc4)C(C)=C1C3(C)C)[C@]1(OC(C)=O)CO[C@@H]1C[C@@H]2O [Paclitaxel]
Median Overall Survival (SCCHN): 4.4 months

Carboplatin/5FU
Median Overall Survival (SCCHN): 5.0 months

Cisplatin/5FU
Median Overall Survival (SCCHN): 5.6-6.4 months

B1: Vitaxin®: a monoclonal antibody directed against the αv/β3 vascular integrin (antibody, chains of the INN, looked up, V domains shown)
VH: QVQLVESGGGVVQPGRSLRLSCAASGFTFSSYDMSWVRQAPGKGLEWVAKVSSGGGSTYYLDTVQGRFTISRDNSKNTLYLQMNSLRAEDTAVYYCARHLHGSFASWGQGTTVTVSS
VL: EIVLTQSPATLSLSPGERATLSCQASQSISNFLHWYQQRPGQAPRLLIRYRSQSISGIPARFSGSGSGTDFTLTISSLEPEDFAVYYCQQSGSWPLTFGGGTKVEIK
Effect on tumors (αv/β3 vascular integrin [1]): shrinks tumors
Effect on solid tumors (αv/β3 vascular integrin [2]): some promise in shrinking solid tumors
